Results: patent publication US7745604B2, “Upstream control elements of the proopiomelanocortin gene and their use” (Oregon Health & Science University, priority 2001, dated 2010)
Several values for one entry are separate records, joined by “and”; a condition that tells them apart may be missing. Equal entries are not always repeated. Entries after “also recorded” stand apart in the source; their conditions may differ. Where two headings read alike, the source gives them in different places. Non-standard residues stand in square brackets, D forms with d. No end group written: not given here.

Legend:
POMC neurons [1] = assay: Whole cell recordings of membrane potential of EGFP-labeled POMC neurons in ARC slices; format: cell-based, mouse
POMC neurons [2] = assay: Action potential frequency (firing rate) of POMC neurons, whole cell or loose cell-attached recordings; format: cell-based, mouse; conditions: for increase in frequency of action potentials (firing rate) in POMC neurons: fenfluramine 20 μM, loose-cell-attached, n=3, reversed with washout
[3] = test system: GABAergic IPSCs in POMC neurons; assay: GABAergic IPSCs recorded in POMC neurons of ARC slices; format: cell-based, mouse
hypothalamic explants = conditions: Y2A; cited from earlier work
[4] = test system: c-fos expression in the arcuate nucleus; assay: c-fos expression in the lateral arcuate after IP injection, rat; format: in vivo; conditions: single IP injection
[5] = test system: c-fos expression in the arcuate nucleus; assay: c-fos expression in arcuate nucleus of Pomc-EGFP mice after IP injection; format: in vivo, mouse; conditions: IP 5 μg/100 g, 2 hours
Source text: Data were obtained from 5 mice in each group. For the Pomc-EGFP mice 5 anatomically matched arcuate nucleus sections (Franklin et al., The Mouse Brain in Stereotaxic Coordinates (Academic Press, San Diego, 1997) were counted from each animal, and images acquired using a Leica TSC confocal microscope (Grove et al., Neuroscience 100:731-40, 2000).

[6] = test system: non-POMC neurons in the arcuate nucleus; assay: Membrane potential of non-fluorescent (non-POMC) neurons in the ARC; format: cell-based, mouse

For `CCNC(C)Cc1cccc(C(F)(F)F)c1` (stereo not drawn) [Fenfluramine], the “effect on membrane potential of POMC neurons” value (from here on “effect on membrane potential”) (POMC neurons [1]; fenfluramine, whole cell, dose dependent, n=4-8 per dose) was “depolarized POMC neurons”, the “increase in frequency of action potentials (firing rate) in POMC neurons” value (POMC neurons [2]) was “two fold increase” and the “increase in frequency of action potentials (firing rate) in POMC neurons” value (POMC neurons [2]; listed as d-FEN) was “doubling”.
In the case of `Clc1cncc(N2CCNCC2)n1` [MK 212, 6-Chloro-2-(1-piperazinyl)pyrazine], the “effect on resting membrane potential of POMC neurons” value (“effect on resting membrane potential” below) (POMC neurons [1]) is reported as “depolarized POMC neurons”.
With `NC1=N[C@H](O)[C@H]2[C@H]3O[C@]4(O)O[C@@H]([C@@H](O)[C@@]2(N1)[C@@H]4O)[C@]3(O)CO` [TTX, tetrodotoxin] the “effect on large amplitude IPSCs” value [3] was “abolished large IPSCs”.
In the case of `Clc1cccc(N2CCNCC2)c1` [mCPP, 1-(3-Chlorophenyl)piperazine], the “effect on resting membrane potential” value (POMC neurons [1]) is reported as “depolarized POMC neurons”.
With `NCCc1c[nH]c2ccc(O)cc12` [serotonin] the “effect on resting membrane potential” value (POMC neurons [1]; serotonin receptor agonists bath-applied four minutes, whole cell, n=4-8 per dose) was “increased the resting membrane potential (depolarized)”.
With D-Trp^8-γMSH (YVMGHFR[dW]DRFG) the “POMC neurons hyperpolarized of cells tested” value (POMC neurons [1]; D-Trp8-γMSH 7 nM) was 9 of 15, the “effect on membrane potential” value (POMC neurons [1]; D-Trp8-γMSH, FIG. 4c) was “hyperpolarizes POMC neurons” and the “effect on frequency of action potentials” value (POMC neurons [2]; D-Trp8-γMSH 7 nM) was “decreased the frequency of action potentials”. For the same compound, the “POMC neurons with increased IPSC frequency of cells tested” value ([3]; D-Trp8-γMSH 7 nM) was 3 of 4 and the “effect on frequency of GABAergic IPSCs in POMC neurons” value ([3]; D-Trp8-γMSH 7 nM, FIG. 4b) was “increases the frequency of GABAergic IPSCs”.
With “Ghrelin: known appetite stimulant; agent known to increase feeding, caloric intake, and appetite (GSSFLSPEHQRVQQRKESKKPPAKLQPR; ends and bridges not checked; UniProt Q9UBU3 24-51, looked up)” the “mean hyperpolarization of POMC neurons” value (POMC neurons [1]; Ghrelin 50 nM, three minutes, whole cell, p<0.03) was 1.47±0.7 mV, the “effect on membrane potential” value (POMC neurons [1]; Ghrelin, whole cell, FIG. 12b, 34 experiments) was “mildly hyperpolarizes POMC neurons” and the “decrease of action potential firing rate of POMC neurons” value (POMC neurons [2]; Ghrelin 50 nM, loose-cell-attached mode, reverses with washout) was 50%. The “effect on frequency of IPSCs in POMC neurons” value ([3]; Ghrelin 50 nM, whole cell) was “increase in the frequency of IPSCs; also recorded: increases the frequency of spontaneous synaptic GABA release onto POMC neurons”.
In the case of “N-acetyl (Leu^28, Leu^31) NPY (24-36) [Y2A]”, the “NPY release from hypothalamic explants” value (hypothalamic explants) is given as “significantly decreased NPY release”, the “α-MSH release from hypothalamic explants” value (hypothalamic explants) is given as “increase in α-MSH release” and the “reduction of IPSC frequency” value ([3]; Y2A, n=8, P<0.004) is given as 44.4±9.3%.
With NPY the “average hyperpolarization of POMC neurons” value (POMC neurons [1]; NPY, n=3, all POMC neurons tested) was 9±6 mV, the “cells in which IPSCs were still inhibited in the presence of tetrodotoxin (TTX)” value [3] was 6 of 6 and the “decrease of frequency of GABAergic IPSCs” value ([3]; NPY 100 nM) was 55%. For the same compound, the “time to decrease of IPSC frequency” value ([3]; NPY 100 nM) was no more than 3 min and the “effect on frequency of mini IPSCs in POMC neurons” value ([3]; NPY, FIG. 4a) was “decreases the frequency of mini IPSCs”.
For PYY3-36, the “POMC neurons depolarized of cells tested” value (POMC neurons [1]; PYY3-36, whole cell) was 19 of the 22, the “increase in number of cells positive for c-fos vs saline” value [4] was 2 fold and the “increase in number of arcuate cells positive for c-fos vs saline” value [5] was 1.8 fold. For the same compound, the “increase in proportion of POMC neurons that express c-fos vs saline” value [5] was 2.6 fold, the “number of arcuate cells positive for c-fos” value ([5]; n=5, P<0.05) was 250±40 and the “increase in frequency of action potentials” value (POMC neurons [2]; PYY3-36 10 nM, loose cell-attached, reversible, n=8) was 5 fold. For the same compound, the “increase in frequency of action potentials over control” value (POMC neurons [2]; PYY3-36 10 nM, whole-cell, n=22, P<0.05) was 93% and the “hyperpolarization of unidentified, presumably NPY-containing, non-POMC neurons” value ([6]; PYY3-36 25 nM, n=5, P<0.004) was 5.2±1.16 mV.
In the case of leptin: adipostatic hormone, the “mean±s.e.m. depolarization” value (POMC neurons [1]; 100 nM leptin, n=45) is reported as 9.7±1.2 mV, the “reversal potential of small inward current causing depolarization” value (POMC neurons [1]; leptin 100 nM, slow voltage ramps) is reported as “approximately −20 mV” and the “POMC cells depolarized of cells tested” value (POMC neurons [1]; leptin 0.1-100 nM) is reported as 72 of 77. For the same compound, the “depolarization of POMC cells” value (POMC neurons [1]; leptin 0.1-100 nM) was 3-30 mV, the “time to depolarization after addition” value (POMC neurons [1]; leptin 0.1-100 nM) was 1 to 10 min and 2 to 10 min and the “effect on frequency of action potentials” value (POMC neurons [2]; leptin, FIG. 3a, 77 POMC neurons) was “increases the frequency of action potentials”. For the same compound, the “adjacent non-fluorescent cells with no effect” value ([6]; leptin, 13 cells tested) was 5 and 5 of 13, the “non-POMC ARC neurons depolarized” value ([6]; leptin, 13 cells tested) was 3 and the “non-fluorescent ARC neurons hyperpolarized” value ([6]; leptin, 13 cells tested) was 5. For the same compound, the “cells in which IPSCs were still inhibited in the presence of tetrodotoxin (TTX)” value [3] was 3 of 5, the “POMC cells with decreased IPSC frequency of cells tested” value ([3]; leptin 100 nM) was 5 out of 15 and the “effect on frequency of IPSCs in POMC cells” value ([3]; leptin 100 nM, FIG. 3d, 5 cells) was “decreased the frequency of IPSCs”. For the same compound, the “decrease of frequency of GABAergic IPSCs” value ([3]; leptin 100 nM, in responding cells) was 25%.
In the case of met-enkephalin, the “effect on membrane potential” value (POMC neurons [1]) is reported as “hyperpolarizes POMC neurons” and the “effect on spontaneous action potentials of POMC cells” value (POMC neurons [2]) is reported as “inhibits all action potentials; also recorded: prevented spontaneous action potential generation”.
For picrotoxin, the “effect on IPSCs” value [3] was “blocked all IPSCs”.
